In patent US6534523B1, “Hepatitis C inhibitor tri-peptides” (Boehringer Ingelheim (Canada) Ltd., priority 1998, dated 2003):

Target: HCV NS3 protease (UniProt P26663)
Format: biochemical, HCV genotype 1b
Parameters: rows headed: IC50 (μM); IC50 (μM)
Conditions: Table 3
Experimental: Recombinant HCV NS3 Protease/NS4A Cofactor Peptide Radiometric Assay
The enzyme was cloned, expressed and prepared according to the protocol described in Example 36. The enzyme was stored at −80° C., thawed on ice and diluted just prior to use in the assay buffer containing the NS4A cofactor peptide.
The substrate used for the NS3 protease/NS4A cofactor peptide radiometric assay, DDIVPC-SMSYTW, is cleaved between the cysteine and the serine residues by the enzyme. The sequence DDIVPC-SMSYTW corresponds to the NS5A/NS5B natural cleavage site in which the cysteine residue in P2 has been substituted for a proline. […] (molar ratio enzyme:cofactor 1:100) in the absence or presence of inhibitors. The separation of substrate from products is performed by adding avidin-coated agarose beads to the assay mixture followed by filtration. The amount of SMS[^125I-Y]TW product found in the filtrate allows for the calculation of the percentage of substrate conversion and of the percentage of inhibition.
The enzymatic reaction was initiated by the addition of the enzyme/NS4A peptide solution and the assay mixture was incubated for 40 min at 23° C. under gentle agitation. Ten (10) μL of 0.5N NaOH were added and 10 μL 1 M MES, pH 5.8 were added to quench the enzymatic reaction.
A non-linear curve fit with the Hill model was applied to the inhibition-concentration data, and the 50% effective concentration (IC50) was calculated by the use of SAS software (Statistical Software System; SAS Institute, Inc. Cary, N.C.). […]
The NS2-NS5B-3′ non coding region was cloned by RT-PCR into the pCR®3 vector (Invitrogen) using RNA extracted from the serum of an HCV genotype 1b infected individual (provided by Dr. Bernard Willems, Hôpital St-Luc, Montréal, Québec, Canada). The NS3-NS4A DNA region was then subcloned by PCR into the pFastBac™ HTa baculovirus expression vector (Gibco/BRL). The vector sequence includes a region encoding a 28-residue N-terminal sequence which contains a hexahistidine tag. The Bac-to-Bac™ baculovirus expression system (Gibco/BRL) was used to produce the recombinant baculovirus. The full length mature NS3 and NS4A heterodimer protein (His-NS3-NS4AFL) was expressed by infecting 10^6 Sf21 cells/mL with the recombinant baculovirus at a multiplicity of infection of 0.1-0.2 at 27° C. The infected culture was harvested 48 to 64 h later by centrifugation at 4° C. The cell pellet was homogenized in 50 mM NaPO4, pH 7.5, 40% glycerol (w/v), 2 mM β-mercaptoethanol, in presence of a cocktail of protease inhibitors. His-NS3-NS4AFL was then extracted from the cell lysate with 1.5% NP-40, 0.5% Triton X-100, 0.5M NaCl, and a DNase treatment. After ultracentrifugation, the soluble extract was diluted 4-fold and bound on a Pharmacia Hi-Trap Ni-chelating column. […] The His-NS3-NS4AFL was stored at −80° C. in 50 mM sodium phosphate, pH 7.5, 10% (w/v) glycerol, 0.5 M NaCl, 0.25 M imidazole, 0.1% NP-40. It was thawed on ice and diluted just prior to use. The protease activity of His-NS3-NS4AFL was assayed in 50 mM Tris-HCl, pH 8.0, 0.25 M sodium citrate, 0.01% (w/v) n-dodecyl-β-D-maltoside, 1 mM TCEP. Five (5) μM of the internally quenched substrate anthranilyl-DDIVPAbu[C(O)—O]-AMY(3-NO2)TW-OH in presence of various concentrations of inhibitor were incubated with 1.5 nM of His-NS3-NS4AFL for 45 min at 23° C. […] The reaction was terminated with the addition of 1M MES, pH 5.8. Fluorescence of the N-terminal product was monitored on a Perkin-Elmer LS-50B fluorometer equipped with a 96-well plate reader (excitation wavelength: 325 nm; emission wavelength: 423 nm).
The following tables list compounds representative of the invention.

HCV NS3 protease, sequence (P26663 1027-1206, other chains not shown): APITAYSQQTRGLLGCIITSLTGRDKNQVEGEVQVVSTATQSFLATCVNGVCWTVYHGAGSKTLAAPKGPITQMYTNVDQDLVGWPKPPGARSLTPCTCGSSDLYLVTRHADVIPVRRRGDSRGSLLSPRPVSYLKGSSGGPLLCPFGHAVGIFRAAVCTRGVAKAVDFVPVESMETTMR

Compound | IC50 [nM]
CCC1CC1(NC(=O)C1CC(OCc2cccc3ccccc23)CN1C(=O)C(NC(=O)OC(C)(C)C)C1CCCCC1)C(=O)O (stereo not shown) [compound 301] | 7700
CC[C@H]1C[C@]1(NC(=O)[C@@H]1C[C@@H](OCc2cccc3ccccc23)CN1C(=O)[C@@H](NC(=O)OCC(C)C)C(C)C)C(=O)O [compound 302] | 12500
CC[C@H]1C[C@]1(NC(=O)[C@@H]1C[C@@H](OCc2cccc3ccccc23)CN1C(=O)[C@@H](NC(=O)OCC(C)C)C1CCCCC1)C(=O)O [compound 303] | 11000
C=C[C@H]1C[C@]1(NC(=O)[C@@H]1C[C@@H](OCc2cccc3ccccc23)CN1C(=O)[C@@H](NC(=O)OC(C)(C)C)C1CCCCC1)C(=O)O [compound 305] | 3200
C=C[C@H]1C[C@]1(NC(=O)[C@@H]1C[C@@H](Oc2ccnc3ccccc23)CN1C(=O)[C@@H](NC(=O)OC(C)(C)C)C1CCCCC1)C(=O)O [compound 306] | 800
C=C[C@H]1C[C@]1(NC(=O)[C@@H]1CC(Oc2cc(-c3ccccc3)nc3ccc([N+](=O)[O-])cc23)CN1C(=O)[C@@H](NC(=O)OC(C)(C)C)C1CCCCC1)C(=O)O (stereo partly shown) [compound 307] | 270
C=C[C@H]1C[C@]1(NC(=O)[C@@H]1C[C@@H](Oc2cccc3ccccc23)CN1C(=O)[C@@H](NC(=O)OC(C)(C)C)C1CCCCC1)C(=O)O [compound 308] | 1600
C=C[C@H]1C[C@]1(NC(=O)[C@@H]1C[C@@H](Oc2ccc3ccccc3c2)CN1C(=O)[C@@H](NC(=O)OC(C)(C)C)C1CCCCC1)C(=O)O [compound 309] | 5000

Same assay, conditions: Table 4

Compound | IC50 [nM]
COc1ccc2c(OC3C[C@@H](C(=O)NC4(C(=O)O)CCC4)N(C(=O)[C@@H](NC(=O)OC(C)(C)C)C(C)(C)C)C3)cc(-c3ccccc3)nc2c1 (stereo partly shown) [compound 403] | 132

Same assay, conditions: Table 5

Compound | IC50 [nM]
C=CC1C[C@]1(NC(=O)[C@@H]1C[C@@H](Oc2ccnc3ccccc23)CN1C(=O)[C@@H](NC(=O)OC(C)(C)C)C(C)(C)C)C(=O)O (stereo partly shown) [compound 501] | 400
C=CC1CC1(NC(=O)C1CC(Oc2ccnc3ccccc23)CN1C(=O)C(NC(=O)OC(C)(C)C)C(C)OC(C)(C)C)C(=O)O (stereo not shown) [compound 503] | 790
C=CC1CC1(NC(=O)C1CC(Oc2ccnc3ccccc23)CN1C(=O)C(NC(=O)OC(C)(C)C)C(C)OC)C(=O)O (stereo not shown) [compound 505] | 790
C=CC1CC1(NC(=O)C1CC(Oc2ccnc3ccccc23)CN1C(=O)C(NC(=O)OC(C)(C)C)C(C)OCc1ccccc1)C(=O)O (stereo not shown) [compound 506] | 1300
C=CC1CC1(NC(=O)C1CC(Oc2ccnc3ccccc23)CN1C(=O)C(NC(=O)OC(C)(C)C)C(C)(C)SCNC(C)=O)C(=O)O (stereo not shown) [compound 507] | 980
C=CC1CC1(NC(=O)C1CC(Oc2ccnc3ccccc23)CN1C(=O)C(NC(=O)OC(C)(C)C)C(C)(C)SCc1ccc(C)cc1)C(=O)O (stereo not shown) [compound 508] | 3100
C=CC1CC1(NC(=O)C1CC(Oc2ccnc3ccccc23)CN1C(=O)C(NC(=O)OC(C)(C)C)C(C)CC)C(=O)O (stereo not shown) [compound 509] | 377
C=CC1CC1(NC(=O)C1CC(Oc2ccnc3ccccc23)CN1C(=O)C(NC(=O)OC(C)(C)C)C(C)CC)C(=O)O (stereo not shown) [compound 510] | 255
C=CC1CC1(NC(=O)C1CC(Oc2ccnc3ccccc23)CN1C(=O)C(NC(=O)OC(C)(C)C)C(O)C1CCCCC1)C(=O)O (stereo not shown) [compound 511] | 2100

Same assay, conditions: Table 6

Compound | IC50 [nM]
C=CC1CC1(NC(=O)C1CC(Oc2cc(-c3ccccc3)nc3c(OC)c(OC)ccc23)CN1C(=O)C(NC(=O)OC(C)(C)C)C(C)(C)C)C(=O)O (stereo not shown) [compound 602] | 41
C=CC1CC1(NC(=O)C1CC(Oc2cc(-c3ccccc3)nc3cc(CC)ccc23)CN1C(=O)C(NC(=O)OC(C)(C)C)C(C)C)C(=O)O (stereo not shown) [compound 603] | 195
C=CC1CC1(NC(=O)C1CC(Oc2ccnc3cc(OC)ccc23)CN1C(=O)C(NC(=O)OC(C)(C)C)C(C)(C)C)C(=O)O (stereo not shown) [compound 604] | 73
C=CC1CC1(NC(=O)C1CC(Oc2cc(-c3ccccc3)nc3cc(OC(C)C)ccc23)CN1C(=O)C(NC(=O)OC(C)(C)C)C(C)(C)C)C(=O)O (stereo not shown) [compound 605] | 195
